Patent US8252832B2, “Kinesin inhibitors as cancer therapeutics” (Novartis AG, priority 2007, dated 2012)
Read-outs that look alike come from different tables or passages of the source.

Tests used:
Assay in all cases: CellTiter-Glo, NCI60 panel
Format in all cases: cell-based
[1] = system: RXF 393; conditions: Renal; for GI50: Homo sapiens
How it was run: (§1)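 Growth inhibition across the NCI-60 panel was scored by ATP content (CellTiter-Glo luminescence) after 48 h compound exposure at 37° C, and values are the concentration that reduced growth by 50%.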

[2] = system: SN12C; conditions: Renal; for GI50: Homo sapiens
How it was run: as §1

[3] = system: SK-MEL-28; conditions: Melanoma; for GI50: Homo sapiens
How it was run: as §1

[4] = system: KM12; conditions: Colon; for GI50: Homo sapiens
How it was run: as §1

[5] = system: MDA-MB-435; conditions: Melanoma; for GI50: Homo sapiens
How it was run: as §1

[6] = system: MCF7; conditions: Breast; for GI50: Homo sapiens
How it was run: as §1

[7] = system: OVCAR-4; conditions: Ovarian; for GI50: Homo sapiens
How it was run: as §1

[8] = system: SF-268; conditions: CNS; for GI50: Homo sapiens
How it was run: as §1

[9] = GI50 in nM, read-out: Log(GI50) (converted)

For `CC(C)(C)[C@H](c1nc(-c2cc(F)ccc2F)cn1Cc1ccccc1)N(CC[C@H](N)CF)C(=O)CO` [Compound IIa], the GI50 [1, 9] was 10 nM, the GI50 ([1]; read-out: GI50) was 10 nM and the “Differential vs mean Log(GI50)” value [1] was −0.669. The GI50 [2, 9] was 10 nM, the GI50 ([2]; read-out: GI50) was 10 nM and the “Differential vs mean Log(GI50)” value [2] was −0.669. For the same compound, the GI50 [3, 9] was 10 nM, the GI50 ([3]; read-out: GI50) was 10 nM and the “Differential vs mean Log(GI50)” value [3] was −0.669. For the same compound, the “Differential vs mean Log(GI50)” value [4] was 0.705, the GI50 [4, 9] was 0.423 nM and the GI50 ([4]; read-out: GI50) was 0.423 nM. The GI50 [5, 9] was 0.152 nM, the GI50 ([5]; read-out: GI50) was 0.152 nM and the “Differential vs mean Log(GI50)” value [5] was 1.149. For the same compound, the “Differential vs mean Log(GI50)” value [6] was −0.669, the GI50 [6, 9] was 10 nM and the GI50 ([6]; read-out: GI50) was 10 nM. The GI50 [7, 9] was 10 nM, the GI50 ([7]; read-out: GI50) was 10 nM and the “Differential vs mean Log(GI50)” value [7] was −0.669. For the same compound, the “Differential vs mean Log(GI50)” value [8] was −0.669, the GI50 [8, 9] was 10 nM and the GI50 ([8]; read-out: GI50) was 10 nM.
